Legend:
Type in all cases: cell-based
[1] = system: IL-17FF; assay: IL-17FF production by PHA-stimulated human PBMC (human IL-17F ELI-Pair); details: PHA-stimulated human PBMC, 48 hours; column B; read-out: IC50 (IL-17FF)
Summary of the method: (§1)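 Healthy-donor PBMC (1×10^5 cells/well) were activated with 2 μg/ml PHA and cultured with test compounds for 48 hours; cytokines were then quantified in supernatants by the respective immunoassay. Screening used 10, 1, 0.1 and 0.01 μM; IC50 came from semilogarithmic compound titration.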

[2] = system: IFN-γ; assay: IFN-γ production by PHA-stimulated human PBMC (OptEIA human IFN-g ELISA); details: PHA-stimulated human PBMC, 48 hours; column C; read-out: IC50 (IFNγ)
Summary of the method: as §1

[3] = system: PBMC from healthy human donors; assay: T cell proliferation assay (PHA-stimulated human PBMC, BrdU ELISA); details: PHA-stimulated human PBMC, 48 hours, column D, read-out: IC50 (Tcell proliferation)
Summary of the method: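 Proliferation was quantified by BrdU ELISA 48 hours after starting culture of 1×10⁵ human PBMC per well with test compound and 2 μg/ml phytohaemagglutinin. Cells came from healthy donors via Ficoll separation and were kept in RPMI1640 with 10% dialysed heat-inactivated FCS.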

| Structure (SMILES) | IC50 [1] | IC50 [2] | IC50 [3] |
| --- | --- | --- | --- |
| COC(=O)c1c(-c2ccccc2Cl)noc1-c1cnn(-c2cccc(Cl)c2)c1C(F)(F)F [IB-71, methyl 3-(2-chlorophenyl)-5-(1-(3-chlorophenyl)-5-(trifluoromethyl)-1H-pyrazol-4-yl)isoxazole-4-carboxylate] | < 10 nM | < 10 nM | < 10 nM |
| COC(=O)c1c(-c2ccc(Cl)cc2Cl)noc1-c1cnn(-c2cccc(Cl)c2)c1C(F)(F)F [IB-76, methyl 5-(1-(3-chlorophenyl)-5-(trifluoromethyl)-1H-pyrazol-4-yl)-3-(2,4-dichlorophenyl)isoxazole-4-carboxylate] | 10 to 100 nM | 100 to 1000 nM | 100 to 1000 nM |
| CC(C)NS(=O)(=O)c1cccc(-n2ncc(-c3onc(-c4c(F)cccc4Cl)c3C(=O)OC(C)C)c2C(F)(F)F)c1 [IB-79, isopropyl 3-(2-chloro-6-fluorophenyl)-5-(1-(3-(N-isopropylsulfamoyl)phenyl)-5-(trifluoromethyl)-1H-pyrazol-4-yl)isoxazole-4-carboxylate] | 100 to 1000 nM | 100 to 1000 nM | 100 to 1000 nM |
| CCOC(=O)c1c(-c2c(F)cccc2Cl)noc1-c1cnn(CC2CCOCC2)c1C(F)(F)F [IB-81, ethyl 3-(2-chloro-6-fluorophenyl)-5-(1-((tetrahydro-2H-pyran-4-yl)methyl)-5-(trifluoromethyl)-1H-pyrazol-4-yl)isoxazole-4-carboxylate] | 100 to 1000 nM | 100 to 1000 nM | 100 to 1000 nM |
| COC(=O)c1c(-c2c(F)cccc2Cl)noc1-c1cnn(-c2cccc(NC(C)=O)c2)c1C(F)(F)F [IB-89, 5-(1-(3-acetamidophenyl)-5-(trifluoromethyl)-1H-pyrazol-4-yl)-3-(2-chloro-6-fluorophenyl)isoxazole-4-carboxylate] | 10 to 100 nM | 10 to 100 nM | 100 to 1000 nM |
| COC(=O)c1c(-c2c(F)cccc2Cl)noc1-c1cnn(-c2cccc(N)c2)c1C(F)(F)F [IB-92, methyl 5-(1-(3-aminophenyl)-5-(trifluoromethyl)-1H-pyrazol-4-yl)-3-(2-chloro-6-fluorophenyl)isoxazole-4-carboxylate] | 10 to 100 nM | 10 to 100 nM | 10 to 100 nM |
| CCOC(=O)c1c(-c2c(F)cccc2Cl)noc1-c1cnn(-c2ccc([N+](=O)[O-])cc2)c1C(F)(F)F [IB-94, ethyl 3-(2-chloro-6-fluorophenyl)-5-(1-(4-nitrophenyl)-5-(trifluoromethyl)-1H-pyrazol-4-yl)isoxazole-4-carboxylate] | 1000 to 10000 nM | 1000 to 10000 nM | 1000 to 10000 nM |
| CCOC(=O)c1c(-c2c(F)cccc2Cl)noc1-c1cnn(CC2CCCO2)c1C(F)(F)F (stereo not drawn) [IB-96, ethyl 3-(2-chloro-6-fluorophenyl)-5-(1-((tetrahydrofuran-2-yl)methyl)-5-(trifluoromethyl)-1H-pyrazol-4-yl)isoxazole-4-carboxylate] | 10 to 100 nM | 10 to 100 nM | 10 to 100 nM |
| CCOC(=O)c1c(-c2c(F)cccc2Cl)noc1-c1cnn(-c2ccccc2N)c1C(F)(F)F [IB-98, ethyl 5-(1-(2-aminophenyl)-5-(trifluoromethyl)-1H-pyrazol-4-yl)-3-(2-chloro-6-fluorophenyl)isoxazole-4-carboxylate] | 10 to 100 nM | 10 to 100 nM | 10 to 100 nM |
| CCOC(=O)c1c(-c2c(F)cccc2Cl)noc1-c1cnn(-c2ccc(NC(C)=O)cc2)c1C(F)(F)F [IB-99, ethyl 5-(1-(4-acetamidophenyl)-5-(trifluoromethyl)-1H-pyrazol-4-yl)-3-(2-chloro-6-fluorophenyl)isoxazole-4-carboxylate] | 1000 to 10000 nM | 1000 to 10000 nM | 1000 to 10000 nM |
| NC(=S)c1c(-c2c(F)cccc2Cl)noc1-c1cnn(-c2ccccc2Cl)c1C(F)(F)F [IB-101, 3-(2-chloro-6-fluorophenyl)-5-(1-(2-chlorophenyl)-5-(trifluoromethyl)-1H-pyrazol-4-yl)isoxazole-4-carbothioamide] | 1000 to 10000 nM | 1000 to 10000 nM | 1000 to 10000 nM |

Now from value to compound, other results behind:

| IC50 [1] | IC50 [2] | Structure (SMILES) | IC50 [3] |
| --- | --- | --- | --- |
| 100 to 1000 nM | 100 to 1000 nM | CCOC(=O)c1c(-c2c(F)cccc2Cl)noc1-c1cnn(-c2ccccc2Br)c1C(F)(F)F [IB-72, ethyl 5-(1-(2-bromophenyl)-5-(trifluoromethyl)-1H-pyrazol-4-yl)-3-(2-chloro-6-fluorophenyl)isoxazole-4-carboxylate] | 100 to 1000 nM |
| < 10 nM | < 10 nM | COC(=O)c1c(-c2c(Cl)cccc2Cl)noc1-c1cnn(-c2cccc(Cl)c2)c1C(F)(F)F [IB-75, methyl 5-(1-(3-chlorophenyl)-5-(trifluoromethyl)-1H-pyrazol-4-yl)-3-(2,6-dichlorophenyl)isoxazole-4-carboxylate] | < 10 nM |
| 10 to 100 nM | 10 to 100 nM | COC(=O)c1c(-c2ccccc2F)noc1-c1cnn(-c2cccc(Cl)c2)c1C(F)(F)F [IB-77, methyl 5-(1-(3-chlorophenyl)-5-(trifluoromethyl)-1H-pyrazol-4-yl)-3-(2-fluorophenyl)isoxazole-4-carboxylate] | 10 to 100 nM |
| 10 to 100 nM | 100 to 1000 nM | CC(=O)Nc1cccc(-n2ncc(-c3onc(-c4c(F)cccc4Cl)c3C(=O)OC(C)C)c2C(F)(F)F)c1 [IB-78, isopropyl 5-(1-(3-acetamidophenyl)-5-(trifluoromethyl)-1H-pyrazol-4-yl)-3-(2-chloro-6-fluorophenyl)isoxazole-4-carboxylate] | 100 to 1000 nM |
| 1000 to 10000 nM | 1000 to 10000 nM | CCOC(=O)c1c(-c2c(F)cccc2Cl)noc1-c1cnn(Cc2ccccc2F)c1C(F)(F)F [IB-80, ethyl 3-(2-chloro-6-fluorophenyl)-5-(1-(2-fluorobenzyl)-5-(trifluoromethyl)-1H-pyrazol-4-yl)isoxazole-4-carboxylate] | 1000 to 10000 nM |
| 10 to 100 nM | 10 to 100 nM | CC(C)OC(=O)c1c(-c2c(F)cccc2Cl)noc1-c1cnn(-c2ccncc2)c1C(F)(F)F [IB-82, isopropyl 3-(2-chloro-6-fluorophenyl)-5-(1-(pyridin-4-yl)-5-(trifluoromethyl)-1H-pyrazol-4-yl)isoxazole-4-carboxylate] | 10 to 100 nM |
| 100 to 1000 nM | 1000 to 10000 nM | Fc1cccc(Cl)c1-c1noc(-c2cnn(-c3ccncc3)c2C(F)(F)F)c1Br [IB-83, 4-bromo-3-(2-chloro-6-fluorophenyl)-5-(1-(pyridin-4-yl)-5-(trifluoromethyl)-1H-pyrazol-4-yl)isoxazole] | 1000 to 10000 nM |
| < 10 nM | < 10 nM | CCOC(=O)c1c(-c2c(F)cccc2Cl)noc1-c1cnn(-c2ccccn2)c1C(F)(F)F [IB-84, ethyl 3-(2-chloro-6-fluorophenyl)-5-(1-(pyridin-2-yl)-5-(trifluoromethyl)-1H-pyrazol-4-yl)isoxazole-4-carboxylate] | < 10 nM |
| 10 to 100 nM | 10 to 100 nM | CCOC(=O)c1c(-c2c(F)cccc2Cl)noc1-c1cnn(-c2cccc([N+](=O)[O-])c2)c1C(F)(F)F [IB-90, ethyl 3-(2-chloro-6-fluorophenyl)-5-(1-(3-nitrophenyl)-5-(trifluoromethyl)-1H-pyrazol-4-yl)isoxazole-4-carboxylate] | 10 to 100 nM |
| 100 to 1000 nM | 100 to 1000 nM | CNC(=O)c1c(-c2c(F)cccc2Cl)noc1-c1cnn(-c2ccccn2)c1C(F)(F)F [IB-93, 3-(2-chloro-6-fluorophenyl)-N-methyl-5-(1-(pyridin-2-yl)-5-(trifluoromethyl)-1H-pyrazol-4-yl)isoxazole-4-carboxamide] | 1000 to 10000 nM |
| 10 to 100 nM | 10 to 100 nM | CCOC(=O)c1c(-c2c(F)cccc2Cl)noc1-c1cnn(-c2ccccc2[N+](=O)[O-])c1C(F)(F)F [IB-95, 3-(2-chloro-6-fluorophenyl)-5-(1-(2-nitrophenyl)-5-(trifluoromethyl)-1H-pyrazol-4-yl)isoxazole-4-carboxylate] | 100 to 1000 nM |
| 100 to 1000 nM | 100 to 1000 nM | CCOC(=O)c1c(-c2c(F)cccc2Cl)noc1-c1cnn(CCN2CCOCC2)c1C(F)(F)F [IB-97, ethyl 3-(2-chloro-6-fluorophenyl)-5-(1-(2-morpholinoethyl)-5-(trifluoromethyl)-1H-pyrazol-4-yl)isoxazole-4-carboxylate] | 1000 to 10000 nM |
| 1000 to 10000 nM | 1000 to 10000 nM | CCOC(=O)c1c(-c2c(F)cccc2Cl)noc1-c1cnn(-c2cccc(C(N)=O)c2)c1C(F)(F)F [IB-100, ethyl 5-(1-(3-carbamoylphenyl)-5-(trifluoromethyl)-1H-pyrazol-4-yl)-3-(2-chloro-6-fluorophenyl)isoxazole-4-carboxylate] | 1000 to 10000 nM |
| 100 to 1000 nM | 100 to 1000 nM | NC(=S)c1c(-c2c(F)cccc2Cl)noc1-c1cnn(-c2ccccc2F)c1C(F)(F)F [IB-102, 3-(2-chloro-6-fluorophenyl)-5-(1-(2-fluorophenyl)-5-(trifluoromethyl)-1H-pyrazol-4-yl)isoxazole-4-carbothioamide] | 100 to 1000 nM |

— patent US8354436B2 (4SC Discovery GmbH, priority 2011, dated 2013)
